Assays:
young human fibroblasts = assay: Cell death by CCK-8 in young fibroblasts; type: cell-based; settings: concentration of 50 ppm or higher, 72 hours
Description: Human fibroblasts were cultured in a 6-well plate culture medium. Senescent cells were prepared by inducing senescence by culturing the fibroblasts in DMEM (containing 10% FBS) medium containing doxorubicin (100 ng/ml) and insulin-like growth factor 1 (IGF-1) (100 ng/ml) for 4 days. Then, the same medium was treated with a positive control material (ABT737, 1-10 uM) and the tea tree root extract (50-150 ppm) and cultured for 72 hours. The ABT737 is a Bcl-2 inhibitor and a representative senolytic. Young cells were treated with experimental materials in DMEM medium without inducing senescence and cultured for 72 hours.
In order to confirm the senolytic efficacy of the treatment with the tea tree root extract, the medium was replaced with a medium diluted 1/100 with Cell counting kit-8 (CCK-8, dojindo), cultured for 1 hour, and then the absorbance was measured at 540 nm.
Human fibroblasts were cultured in a 6-well plate culture medium. […]
In order to confirm the senolytic efficacy of the material treated with the tea tree root extract, the medium was replaced with a medium diluted 1/100 with Cell counting kit-8 (CCK-8, dojindo), cultured for 1 hour, and then the absorbance was measured at 540 nm.

[1] = system: senescent human fibroblasts; assay: Cell death by CCK-8 in senescence-induced fibroblasts; type: cell-based; settings: 72 hours
Description: Human fibroblasts were cultured in a 6-well plate culture medium. Senescent cells were prepared by inducing senescence by culturing the fibroblasts in DMEM (containing 10% FBS) medium containing doxorubicin (100 ng/ml) and insulin-like growth factor 1 (IGF-1) (100 ng/ml) for 4 days. Then, the same medium was treated with a positive control material (ABT737, 1-10 uM) and the tea tree root extract (50-150 ppm) and cultured for 72 hours. The ABT737 is a Bcl-2 inhibitor and a representative senolytic. Young cells were treated with experimental materials in DMEM medium without inducing senescence and cultured for 72 hours. In order to confirm the senolytic efficacy of the treatment with the tea tree root extract, the medium was replaced with a medium diluted 1/100 with Cell counting kit-8 (CCK-8, dojindo), cultured for 1 hour, and then the absorbance was measured at 540 nm. Human fibroblasts were cultured in a 6-well plate culture medium. […] In order to confirm the senolytic efficacy of the material treated with the tea tree root extract, the medium was replaced with a medium diluted 1/100 with Cell counting kit-8 (CCK-8, dojindo), cultured for 1 hour, and then the absorbance was measured at 540 nm.

O=C(O[C@@H]1Cc2c(O)cc(O)cc2O[C@@H]1c1cc(O)c(O)c(O)c1)c1cc(O)c(O)c(O)c1 [EGCG, epigallocatechin gallate]
cytotoxicity on young cells (young human fibroblasts): showed cytotoxicity | killing senescent cells in fibroblasts [1]: no effect

— patent publication US20250000786A1, “SENOTHERAPY COMPOSITION CONTAINING CAMELLIA SINENSIS EXTRACT” (AMOREPACIFIC CORPORATION, priority 2023, published 2025)
